Patent publication US20140057895A1, “INDAZOLE- AND PYRROLOPYRIDINE-DERIVATIVE AND PHARMACEUTICAL USE THEREOF” (priority 2011, published 2014)
Structures can show the parent of a compound that is named as a salt. Where two headings read alike, the source gives them in different places.

Columns and labels:
5-HT4 receptor = target: T1, 5-HT4 receptor (Cavia porcellus, UniProt O70528); assay: Test Example 3: Guinea pig 5-HT4 receptor binding assay, [3H]-GR113808, striatum membranes (Table 98)
T1 construct: striatum was isolated which was cryopreserved at −80° C. until use; from tissue; host or cells: guinea pig (Slc-Hartley) striatum membranes
T1 sequence (O70528 whole entry): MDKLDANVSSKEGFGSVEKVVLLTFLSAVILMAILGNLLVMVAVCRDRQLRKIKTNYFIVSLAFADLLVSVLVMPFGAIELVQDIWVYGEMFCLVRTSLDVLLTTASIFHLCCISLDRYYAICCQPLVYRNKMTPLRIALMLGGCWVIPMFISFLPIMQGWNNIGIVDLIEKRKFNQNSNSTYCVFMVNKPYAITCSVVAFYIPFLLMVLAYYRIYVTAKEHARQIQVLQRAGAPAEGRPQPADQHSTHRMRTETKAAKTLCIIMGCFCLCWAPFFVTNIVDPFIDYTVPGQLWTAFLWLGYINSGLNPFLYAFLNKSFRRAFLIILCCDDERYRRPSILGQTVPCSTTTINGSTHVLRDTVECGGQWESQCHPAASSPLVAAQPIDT
In short: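 Striatal membranes from Slc-Hartley guinea pigs were incubated with 0.1 nM [3H]-GR113808 and test compounds in 50 mM Hepes pH 7.4 at 37° C for 30 min; nonspecific binding was defined with 30 μM serotonin. Bound radioactivity was collected by filtration, and IC50 was derived from inhibition of specific binding.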

human 5-HT4b receptor = target: T2, human 5-HT4b receptor (Homo sapiens, UniProt Q13639); assay: Test Example 4: Serotonin 4 (5-HT4) receptor agonist activity assay, cAMP HTRF in CHO cells (Table 100); assay type: cell-based; conditions: mean value; for Emax: CHO, 0.25 h, intrinsic activity, maximal activity of 5-HT defined as 100%, read-out: IA (%); for EC50: concentration showing 50% of IA
T2 construct: expressed in transfected cells; host or cells: CHO cells (G418 selection)
T2 sequence (Q13639 whole entry): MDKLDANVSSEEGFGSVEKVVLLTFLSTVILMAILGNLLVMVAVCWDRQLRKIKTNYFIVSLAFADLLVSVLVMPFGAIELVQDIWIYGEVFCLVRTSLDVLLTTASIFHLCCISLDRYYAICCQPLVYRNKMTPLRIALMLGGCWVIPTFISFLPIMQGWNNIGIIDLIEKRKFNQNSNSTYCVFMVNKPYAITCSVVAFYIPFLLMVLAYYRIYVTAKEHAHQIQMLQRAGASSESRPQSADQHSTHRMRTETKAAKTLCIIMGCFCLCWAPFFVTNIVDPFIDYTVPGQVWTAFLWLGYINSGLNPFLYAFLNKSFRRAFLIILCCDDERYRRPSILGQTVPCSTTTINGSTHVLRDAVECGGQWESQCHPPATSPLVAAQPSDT
Procedure: The cAMP measurement test used herein was carried out by using CISBIO HTRF (trademark) cAMP Hirange kit according to the manufacturer's instructions attached therewith.
CHO cells expressing human 5-HT4b receptor were incubated in Medium 1 [DMEM/1% NEAA, 1% penicillin/streptomycin (P/S), 0.2 mg/mL GENETICIN (G418), 10% FBS] at 37° C. under 5% CO2 condition. Then, the cells were put into Medium 2 (DMEM/10000 cut FBS, G-418, P/S, NEAA) for 1 to 2 hours, and collected by treating with trypsin containing EDTA. The collected cells were suspended in Assay Buffer 1 [100 mM Hanks/HEPES buffer (pH 7.4)], the suspended cells were mixed with the testing compound on 384-well plates, and the cells were incubated at 31° C. for 15 minutes. To the cells were added cAMP-cryptate solution and cAMP-d2 solution, and they were incubated at room temperature for 1 hour. Then, time-resolved fluorescence was measured by En Vision (excitation wavelength: 330 nm, fluorescence wavelength: 620/665 nm).
An intrinsic activity of the compound [IA (%)] and a concentration showing 50% of IA [EC50 (nM)] were calculated from the obtained results. In particular, the intrinsic activity (IA) was calculated on the basis of the maximal activity of 5-HT (measured from 10^−11 M to 10^−7 M) defined as 100%.
In the following table, the compounds used in the test are shown in numbers which correspond to the Example numbers above where the preparations of the compounds are described.

[1] = Guinea pig 5-HT4 receptor binding assay, [3H]-GR113808, striatum membranes, mean value of each group, read-out: IC50

Row | Emax (human 5-HT4b receptor) | EC50 (human 5-HT4b receptor) | IC50 (5-HT4 receptor; [1]) | Structure (SMILES) | IC50 (5-HT4 receptor)
1 | 95.5% | 1.2 nM | < 20 nM | CC(C)c1nn(-c2noc(C3CCN(C[C@H]4CCCN4C(=O)CO)CC3)n2)c2c(F)cccc12 [Example 529, 1-{(2R)-2-[(4-{3-[7-fluoro-3-(propan-2-yl)-1H-indazol-1-yl]-1,2,4-oxadiazol-5-yl}piperidin-1-yl)methyl]pyrrolidin-1-yl}-2-hydroxyethanone hydrochloride] | 
2 | 106% | 1.8 nM | < 20 nM | CC(C)c1nn(-c2noc(C3CCN(C(C)(C)CO)CC3)n2)c2c(F)cccc12 [Example 402, 2-(4-{3-[7-fluoro-3-(propan-2-yl)-1-indazol-1-yl]-1,2,4-oxadiazol-5-yl}piperidin-1-yl)-2-methylpropan-1-ol] | 
3 | 61% | 13.6 nM | 67.9 nM | CC(=O)N1CCC(CN2CCC(c3nc(-n4nc(C(C)C)c5ccccc54)no3)CC2)CC1 [Example 475, 1-{4-[(4-{3-[3-(propan-2-yl)-1H-indazol-1-yl]-1,2,4-oxadiazol-5-yl}piperidin-1-yl)methyl]piperidin-1-yl}ethanone trifluoroacetate] | 
4 | 72.5% | 6.9 nM | 81.1 nM | CC(=O)N1CC(CN2CCC(c3nc(-n4nc(C(C)C)c5ccccc54)no3)CC2)C1 [Example 467, 1-{3-[(4-{3-[3-(propan-2-yl)-1H-indazol-1-yl]-1,2,4-oxadiazol-5-yl}piperidin-1-yl)methyl]azetidin-1-yl}ethanone trifluoroacetate] | 
5 | 89.4% | 34.4 nM | 20.2 nM | COC(=O)N1CC(CN2CCC(c3nc(-n4nc(C(C)C)c5ccc(F)c(F)c54)no3)CC2)C1 [Example 474, methyl 3-[(4-{3-[6,7-difluoro-3-(propan-2-yl)-1H-indazol-1-yl]-1,2,4-oxadiazol-5-yl}piperidin-1-yl)methyl]azetidine-1-carboxylate trifluoroacetate] | 
6 | 71.8% | 1.1 nM | < 20 nM | CCc1nn(-c2noc(C3CCN(C[C@@H]4CCN(S(C)(=O)=O)C4)CC3)n2)c2c(F)cccc12 [Example 203, 3-ethyl-7-fluoro-1-[5-(1-{[(3S)-1-(methylsulfonyl)pyrrolidin-3-yl]methyl}piperidin-4-yl)-1,2,4-oxadiazol-3-yl]-1H-indazole] | 
7 | 83.1% | 13.8 nM | < 20 nM | CC(C)c1nn(-c2noc(C3CCN(C4CCC4)CC3)n2)c2c(F)c(F)ccc12 [Example 451, 1-[5-(1-cyclobutylpiperidin-4-yl)-1,2,4-oxadiazol-3-yl]-6,7-difluoro-3-(propan-2-yl)-1H-indazole-trifluoroacetate] | 
8 | 78.6% | 5.3 nM | < 20 nM | CCc1nn(-c2noc(C3CCN(C4CCN(C(C)=O)CC4)CC3)n2)c2c(F)c(F)ccc12 [Example 460, 1-{4-[3-(3-ethyl-6,7-difluoro-1H-indazol-1-yl)-1,2,4-oxadiazol-5-yl]-1,4′-bipiperidin-1′-yl}ethanone trifluoroacetate] | 
9 | 65.5% | 4.4 nM | < 20 nM | CCc1nn(-c2noc(C3CCN(C4CCN(C(=O)COC)CC4)CC3)n2)c2c(F)c(F)ccc12 [Example 461, 1-{4-[3-(3-ethyl-6,7-difluoro-1H-indazol-1-yl)-1,2,4-oxadiazol-5-yl]-1,4′-bipiperidin-1′-yl}-2-methoxyethanone trifluoroacetate] | 
10 | 56.8% | 12.2 nM | < 20 nM | CCc1nn(-c2noc(C3CCN(C4CCCC4)CC3)n2)c2c(F)c(F)ccc12 [Example 447, 1-[5-(1-cyclopentylpiperidin-4-yl)-1,2,4-oxadiazol-3-yl]-3-ethyl-6,7-difluoro-1H-indazole-trifluoroacetate] | 
11 | 79.1% | 3.7 nM | < 20 nM | CCc1nn(-c2noc(C3CCN(C[C@H]4CCN(C(C)=O)C4)CC3)n2)c2c(F)cccc12 [Example 209, 1-[(3R)-3-({4-[3-(3-ethyl-7-fluoro-1H-indazol-1-yl)-1,2,4-oxadiazol-5-yl]piperidin-1-yl}methyl)pyrrolidin-1-yl]ethanone hydrochloride] | 
12 | 70% | 31.2 nM | < 20 nM | CC(=O)N1CCC(N2CCC(c3nc(-n4nc(C(C)C)c5ccc(F)c(F)c54)no3)CC2)CC1 [Example 464, 1-(4-{3-[6,7-difluoro-3-(propan-2-yl)-1H-indazol-1-yl]-1,2,4-oxadiazol-5-yl}-1,4′-bipiperidin-1′-yl}ethanone trifluoroacetate] | 
13 | 68.2% | 7.6 nM | < 20 nM | CCc1nn(-c2noc(C3CCN(C4CCN(C(=O)OC)CC4)CC3)n2)c2c(F)c(F)ccc12 [Example 459, methyl 4-[3-(3-ethyl-6,7-difluoro-1H-indazol-1-yl)-1,2,4-oxadiazol-5-yl]-1,4′-bipiperidine-1′-carboxylate trifluoroacetate] | 
14 | 39.7% | 6.8 nM | < 20 nM | CCc1nn(-c2noc(C3CCN(C[C@@H]4CCN(C(C)=O)C4)CC3)n2)c2c(F)cccc12 [Example 201, 1-[(3S)-3-({4-[3-(3-ethyl-7-fluoro-1H-indazol-1-yl)-1,2,4-oxadiazol-5-yl]piperidin-1-yl}methyl)pyrrolidin-1-yl]ethanone] | 
15 | 82.9% | 17.6 nM | < 20 nM | CC(C)c1nn(-c2noc(C3CCN(C4CCN(C(=O)CO)CC4)CC3)n2)c2c(F)c(F)ccc12 [Example 520, 1-(4-{3-[6,7-difluoro-3-(propan-2-yl)-1H-indazol-1-yl]-1,2,4-oxadiazol-5-yl}-1,4′-bipiperidin-1′-yl)-2-hydroxyethanone] | 
16 | 68.8% | 5.3 nM | 20.4 nM | CCc1nn(-c2noc(C3CCN(CC4CN(C(=O)COC)C4)CC3)n2)c2c(F)c(F)ccc12 [Example 469, 1-[3-({4-[3-(3-ethyl-6,7-difluoro-1H-indazol-1-yl)-1,2,4-oxadiazol-5-yl]piperidin-1-yl}methyl)azetidin-1-yl]-2-methoxyethanone trifluoroacetate] | 
17 | 69.8% | 22.4 nM | < 20 nM | CCc1nn(-c2noc(C3CCN(CC4CN(C(C)=O)C4)CC3)n2)c2c(F)c(F)ccc12 [Example 468, 1-[3-({4-[3-(3-ethyl-6,7-difluoro-1H-indazol-1-yl)-1,2,4-oxadiazol-5-yl]piperidin-1-yl}methyl)azetidin-1-yl]ethanone trifluoroacetate] | 
18 | 72.7% | 3.4 nM | < 20 nM | CCc1nn(-c2noc(C3CCN(CC4CN(C(C)=O)C4)CC3)n2)c2c(F)cccc12 [Example 223, 1-[3-({4-[3-(3-ethyl-7-fluoro-1H-indazol-1-yl)-1,2,4-oxadiazol-5-yl]piperidin-1-yl}methyl)azetidin-1-yl]ethanone hydrochloride] | 
19 | 64.4% | 8.3 nM | < 20 nM | COC(=O)N1CCC(N2CCC(c3nc(-n4nc(C(C)C)c5ccc(F)c(F)c54)no3)CC2)CC1 [Example 463, methyl 4-{3-[6,7-difluoro-3-(propan-2-yl)-1H-indazol-1-yl]-1,2,4-oxadiazol-5-yl}-1,4′-bipiperidine 1′-carboxylate trifluoroacetate] | 
20 | 52.1% | 13.2 nM | < 20 nM | CCc1nn(-c2noc(C3CCN(C(C)C)CC3)n2)c2c(F)c(F)ccc12 [Example 445, 3-ethyl-6,7-difluoro-1-{5-[1-(propan-2-yl)piperidin-4-yl]-1,2,4-oxadiazol-3-yl}-1H-indazole trifluoroacetate] | 
21 | 87.7% | 15.8 nM | < 20 nM | CC(C)c1nn(-c2noc(C3CCN(C(C)C)CC3)n2)c2c(F)c(F)ccc12 [Example 450, 6,7-difluoro-3-(propan-2-yl)-1-{5-[1-(propan-2-yl)piperidin-4-yl]-1,2,4-oxadiazol-3-yl}-1H-indazole trifluoroacetate] | 
22 | 65.5% | 11.4 nM | < 20 nM | CCc1nn(-c2noc(C3CCN(CC4CCN(C(=O)COC)CC4)CC3)n2)c2c(F)c(F)ccc12 [Example 477, 1-[4-({4-[3-(3-ethyl-6,7-difluoro-1H-indazol-1-yl)-1,2,4-oxadiazol-5-yl]piperidin-1-yl}methyl)piperidin-1-yl]-2-methoxyethanone trifluoroacetate] | 

Row | Structure (SMILES) | Emax (human 5-HT4b receptor) | EC50 (human 5-HT4b receptor) | IC50 (5-HT4 receptor; [1]) | IC50 (5-HT4 receptor)
23 | CC(C)c1nn(-c2noc(C3(O)CCN(C4CCN(C(=O)CO)CC4)CC3)n2)c2c(F)cccc12 [Example 551, 1-(4-{3-[7-fluoro-3-(propan-2-yl)-1H-indazol-1-yl]-1,2,4-oxadiazol-5-yl}-4-hydroxy-1,4′-bipiperidin-1′-yl)-2-hydroxyethanone] | 70.4% | 18.5 nM |  | 81.9 nM
